In publication PMC7111470 (European Journal of Medicinal Chemistry, 2011):

What was measured:
[1] = target: T1, BCoV 9-SOAE (haemagglutinin-esterase on whole virus) (Bovine coronavirus Mebus, UniProt P15776); assay: pNPA hydrolysis, A400; type: biochemical
[2] = target: T1, BCoV 9-SOAE (haemagglutinin-esterase on whole virus); assay: pNPA hydrolysis, A400; type: biochemical; conditions: read-out: BCoV / 3

T1 sequence (P15776 17-424): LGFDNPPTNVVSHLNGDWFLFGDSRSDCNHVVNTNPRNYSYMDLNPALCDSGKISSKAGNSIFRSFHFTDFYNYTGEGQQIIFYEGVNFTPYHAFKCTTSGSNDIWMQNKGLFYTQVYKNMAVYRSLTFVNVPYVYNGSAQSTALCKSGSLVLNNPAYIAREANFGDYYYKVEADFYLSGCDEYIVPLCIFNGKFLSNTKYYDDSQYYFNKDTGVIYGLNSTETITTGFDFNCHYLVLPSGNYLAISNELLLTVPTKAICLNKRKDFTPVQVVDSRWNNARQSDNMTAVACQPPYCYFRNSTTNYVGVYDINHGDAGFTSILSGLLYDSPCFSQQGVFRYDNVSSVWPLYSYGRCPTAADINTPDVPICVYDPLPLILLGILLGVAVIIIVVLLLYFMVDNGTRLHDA

Compound	pNPA hydrolysis, A400 [1]	inhibition at 2000 µM [2] [%]
CC(=O)Oc1ccc([N+](=O)[O-])cc1 [p-nitrophenyl acetate]	esterase activities of all viruses and recombinant proteins were determined with p-nitrophenyl acetate (pNPA)	
C=CCO[C@]1(C(=O)O)C[C@H](O)[C@@H](NC(C)=O)[C@H]([C@H](O)[C@H](O)COC)O1 [compound 3, Ammonium (allyl 5-acetamido-9-O-methyl-3,5-dideoxy-d-glycero-α-d-galacto-2-nonulopyranosidonate)]		< 0
